One data set deals with Leishmania donovani. Kind of data set: Antileishmanial activity against Leishmania donovani 9515 (MHOM/IN/95/9151) promastigote incubated for 48 hrs by resazurin dye based plate reader assay. In kind it is functional, organism-based.
Settings: not given
For `C#CCn1cc(/C=N\N=C\c2ccco2)c2cc([N+](=O)[O-])ccc21`, the IC50 is above 10 µM.
Same read-out and setting: the result for `C#CCn1cc(/C=N\N=C\C(C)=Cc2ccccc2)c2cc([N+](=O)[O-])ccc21` reads 7.88 µM.

Tested on in the next data set: not listed separately
Kind of data set: Cytotoxicity against human […]-differentiated THP-1 cells incubated for 72 hrs by resazurin dye based assay. In kind it is toxicity, cell-based.
Settings: not given
Background: The colour change of resazurin is a common sign of viable cells or microbes.
`C#CCn1cc(/C=N\N=C\c2ccco2)c2cc([N+](=O)[O-])ccc21` registered an IC50 at 72 h above 100 µM.
Same read-out and setting: the result for `C#CCn1cc(/C=N\N=C\C(C)=Cc2ccccc2)c2cc([N+](=O)[O-])ccc21` reads above 100 µM.

Another data set concerns Trypanosoma brucei brucei. Nature of the data set: Trypanocidal activity against Trypanosoma brucei brucei GUTat3.1 incubated for 72 hrs by CellTiter-Glo reagent based […] analysis. Format: functional, organism-based. As to conditions: GUTat3.1, 72 h. On the technique in general: In ATP-based viability assays light output follows the ATP content of the culture.
For `C#CCn1cc(/C=N\N=C\c2ccco2)c2cc([N+](=O)[O-])ccc21`, the 50% inhibitory concentration (IC50) is above 78 µM.
On the same count and under the same terms, the result for `C#CCn1cc(/C=N\N=C\C(C)=Cc2ccccc2)c2cc([N+](=O)[O-])ccc21` reads 26.7 µM.

Tested on in the next data set: not listed separately
Nature of the data set: Selectivity index, ratio of CC50 for MDBK to IC50 for Trypanosoma brucei gambiense IL1922. In kind it is toxicity, cell-based. As to conditions: cattle, MDBK cells; read-out: Ratio CC50/IC50.
On to `C#CCn1cc(/C=N\N=C\C(C)=Cc2ccccc2)c2cc([N+](=O)[O-])ccc21`, for which the selectivity ratio stood at 0.34.

Tested on in a further data set: not listed separately
Kind of data set: Cytotoxicity against MDBK cells incubated for 72 hrs by CCK8 assay. In kind it is toxicity, cell-based, Bos taurus. As to conditions: cattle, MDBK cells. A general note: Tetrazolium dyes change colour on reduction, which living cells bring about.
For `C#CCn1cc(/C=N\N=C\c2ccco2)c2cc([N+](=O)[O-])ccc21`, the CC50 at 72 h was above 312 µM.

The same data set, now with this note: cattle, mdbk, 72 h.
For `C#CCn1cc(/C=N\N=C\C(C)=Cc2ccccc2)c2cc([N+](=O)[O-])ccc21`, the midpoint of cytotoxicity, the CC50, lay at 226 µM.

The test system of a further data set is Leishmania major. Nature of the data set: Antileishmanial activity against Leishmania major NIH-S (MHOM/SN/74/Seidman) amastigote infected in THP-1 cells assessed as inhibition of parasite growth incubated for 72 hrs by resazurin dye based plate reader assay. Format: functional, organism-based. Particulars: THP-1, 72 h.
Consider `C#CCn1cc(/C=N\N=C\c2ccco2)c2cc([N+](=O)[O-])ccc21`, for which the IC50 is above 10 µM.

Tested on in the next data set: not listed separately
Kind of data set: Selectivity index, ratio of IC50 for human THP-1 cells to IC50 for leishmanicidal activity against Leishmania donovani 9515 (MHOM/IN/95/9151) amastigote. In kind it is toxicity, cell-based. Particulars: read-out: Ratio IC50.
Take `C#CCn1cc(/C=N\N=C\c2ccco2)c2cc([N+](=O)[O-])ccc21`: the selectivity ratio was above 39.

The test system of the next data set is Trypanosoma equiperdum. Nature of the data set: Trypanocidal activity against Trypanosoma equiperdum IVM-t1 incubated for 72 hrs by CellTiter-Glo reagent based […] analysis. Format: functional, organism-based. As to conditions: IVM-t1, 72 h.
For the compound `C#CCn1cc(/C=N\N=C\c2ccco2)c2cc([N+](=O)[O-])ccc21`, the IC50 was above 78 µM.
Same read-out and setting: the result for `C#CCn1cc(/C=N\N=C\C(C)=Cc2ccccc2)c2cc([N+](=O)[O-])ccc21` reads 29 µM.

Tested on in the next data set: not listed separately
Nature of the data set: Selectivity index, ratio of CC50 for MDBK to IC50 for Trypanosoma congolense IL3000. Format: toxicity, cell-based. Particulars: cattle, MDBK cells; read-out: Ratio CC50/IC50.
For `C#CCn1cc(/C=N\N=C\C(C)=Cc2ccccc2)c2cc([N+](=O)[O-])ccc21`, the selectivity ratio was determined as 0.94.

For another data set, the system named is Leishmania donovani. Nature of the data set: Leishmanicidal activity against Leishmania donovani 9515 (MHOM/IN/95/9151) amastigote infected in THP-1 cells incubated for 72 hrs by resazurin dye based plate reader assay. In kind it is functional, organism-based. As to conditions: THP-1, 72 h.
In turn, `C#CCn1cc(/C=N\N=C\c2ccco2)c2cc([N+](=O)[O-])ccc21` came in with a 50% inhibitory concentration (IC50) of 2.58 µM.
On the same count and under the same terms, to `C#CCn1cc(/C=N\N=C\C(C)=Cc2ccccc2)c2cc([N+](=O)[O-])ccc21` belongs above 10 µM.

Tested on in the next data set: not listed separately
Nature of the data set: Selectivity index, ratio of CC50 for MDBK to IC50 for Trypanosoma brucei brucei GUTat3.1. As to conditions: cattle, MDBK cells; read-out: Ratio CC50/IC50. In kind it is toxicity, cell-based.
Consider `C#CCn1cc(/C=N\N=C\C(C)=Cc2ccccc2)c2cc([N+](=O)[O-])ccc21`, for which the selectivity ratio is 0.34.

Tested on in the next data set: not listed separately
Nature of the data set: Selectivity index, ratio of CC50 for MDBK to IC50 for Trypanosoma brucei rhodesiense IL1501. As to conditions: cattle, MDBK cells; read-out: Ratio CC50/IC50. In kind it is toxicity, cell-based.
`C#CCn1cc(/C=N\N=C\C(C)=Cc2ccccc2)c2cc([N+](=O)[O-])ccc21`: the selectivity ratio was found to be 0.93.

Tested on in a further data set: not listed separately
Nature of the data set: Selectivity index, ratio of CC50 for MDBK to IC50 for Trypanosoma evansi Tansui. As to conditions: cattle, MDBK cells; read-out: Ratio CC50/IC50. Format: toxicity, cell-based.
Regarding `C#CCn1cc(/C=N\N=C\C(C)=Cc2ccccc2)c2cc([N+](=O)[O-])ccc21`, the selectivity ratio was 0.41.

Tested on in a further data set: not listed separately
Kind of data set: Cytotoxicity against green monkey Vero cells incubated for 48 hrs by resazurin dye based assay. In kind it is toxicity, cell-based. Particulars: African green monkey (Chlorocebus sabaeus).
Turning to `C#CCn1cc(/C=N\N=C\c2ccco2)c2cc([N+](=O)[O-])ccc21`, the half-maximal inhibitory concentration (IC50) at 48 h was above 100 µM.
Still for that read-out and setting: to `C#CCn1cc(/C=N\N=C\C(C)=Cc2ccccc2)c2cc([N+](=O)[O-])ccc21` belongs 9.59 µM.

The test system of another data set is Trypanosoma brucei rhodesiense. Kind of data set: Trypanocidal activity against Trypanosoma brucei rhodesiense IL1501 incubated for 72 hrs by CellTiter-Glo reagent based […] analysis. Format: functional, organism-based. As to conditions: IL1501, 72 h.
`C#CCn1cc(/C=N\N=C\c2ccco2)c2cc([N+](=O)[O-])ccc21` had a half-maximal inhibitory concentration (IC50) above 78 µM.
On the same count and under the same terms, to `C#CCn1cc(/C=N\N=C\C(C)=Cc2ccccc2)c2cc([N+](=O)[O-])ccc21` belongs 9.86 µM.

Tested on in a further data set: not listed separately
Kind of data set: Selectivity index, ratio of CC50 for MDBK to IC50 for Trypanosoma equiperdum IVM-t1. Particulars: cattle, MDBK cells; read-out: Ratio CC50/IC50. Format: toxicity, cell-based.
`C#CCn1cc(/C=N\N=C\C(C)=Cc2ccccc2)c2cc([N+](=O)[O-])ccc21`: the selectivity ratio stood at 0.32.

Tested on in the next data set: not listed separately
Nature of the data set: Selectivity index, ratio of IC50 for african green monkey Vero cells to IC50 for static antileishmanial activity against Leishmania donovani 9515 (MHOM/IN/95/9151) amastigote. Format: toxicity, cell-based. Particulars: read-out: Ratio IC50.
In the case of `C#CCn1cc(/C=N\N=C\c2ccco2)c2cc([N+](=O)[O-])ccc21`, the selectivity ratio was above 112.

A further data set deals with Trypanosoma evansi. Kind of data set: Trypanocidal activity against Trypanosoma evansi Tansui incubated for 72 hrs by CellTiter-Glo reagent based […] analysis. Format: functional, organism-based.
Settings: not given
`C#CCn1cc(/C=N\N=C\c2ccco2)c2cc([N+](=O)[O-])ccc21` came in with an IC50 above 78 µM.
`C#CCn1cc(/C=N\N=C\C(C)=Cc2ccccc2)c2cc([N+](=O)[O-])ccc21` had an IC50 of 22.7 µM.

The subject of another data set is Leishmania major. Kind of data set: Leishmanicidal activity against Leishmania major NIH-S (MHOM/SN/74/Seidman) amastigote incubated for 48 hrs by resazurin dye based plate reader assay. Format: functional, organism-based.
Settings: not given
The compound `C#CCn1cc(/C=N\N=C\c2ccco2)c2cc([N+](=O)[O-])ccc21` yielded an IC50 above 10 µM.

Tested on in another data set: not listed separately
Kind of data set: Selectivity index, ratio of IC50 for african green monkey Vero cells to IC50 for leishmanicidal activity against Leishmania donovani 9515 (MHOM/IN/95/9151) amastigote. Format: toxicity, cell-based. Particulars: read-out: Ratio IC50.
In the case of `C#CCn1cc(/C=N\N=C\c2ccco2)c2cc([N+](=O)[O-])ccc21`, the selectivity ratio was above 39.

Tested on in another data set: not listed separately
Nature of the data set: Selectivity index, ratio of IC50 for human THP-1 cells to IC50 for static antileishmanial activity against Leishmania donovani 9515 (MHOM/IN/95/9151) amastigote. In kind it is toxicity, cell-based. As to conditions: read-out: Ratio IC50.
On to `C#CCn1cc(/C=N\N=C\c2ccco2)c2cc([N+](=O)[O-])ccc21`, for which the selectivity ratio came out at 112.

Tested on in a further data set: not listed separately
Kind of data set: Selectivity index, ratio of IC50 for human THP-1 cells to IC50 for Leishmania major IR-173 (MHO-M/IR/-173) promastigote. In kind it is toxicity, cell-based. As to conditions: read-out: Ratio IC50.
Regarding `C#CCn1cc(/C=N\N=C\c2ccco2)c2cc([N+](=O)[O-])ccc21`, the selectivity ratio worked out at 20.

For the next data set, the system named is Trypanosoma congolense. Kind of data set: Trypanocidal activity against Trypanosoma congolense IL3000 incubated for 72 hrs by CellTiter-Glo reagent based […] analysis. In kind it is functional, organism-based. As to conditions: IL3000, 72 h.
The compound `C#CCn1cc(/C=N\N=C\c2ccco2)c2cc([N+](=O)[O-])ccc21` gave a concentration for half-maximal inhibition (IC50) above 78 µM.
The same measure, in the same setting: to `C#CCn1cc(/C=N\N=C\C(C)=Cc2ccccc2)c2cc([N+](=O)[O-])ccc21` belongs above 9.79 µM.

The test system of a further data set is Leishmania major. Nature of the data set: Antileishmanial activity against Leishmania major IR-173 (MHO-M/IR/-173) promastigote incubated for 48 hrs by resazurin dye based plate reader assay. In kind it is functional, organism-based.
Settings: not given
Consider `C#CCn1cc(/C=N\N=C\c2ccco2)c2cc([N+](=O)[O-])ccc21`, for which the IC50 is 4.9 µM.

Another data set relates to Trypanosoma brucei gambiense. Nature of the data set: Trypanocidal activity against Trypanosoma brucei gambiense IL1922 incubated for 72 hrs by CellTiter-Glo reagent based […] analysis. In kind it is functional, organism-based. Particulars: IL1922, 72 h.
Compound `C#CCn1cc(/C=N\N=C\c2ccco2)c2cc([N+](=O)[O-])ccc21` registered a half-inhibitory concentration (IC50) above 78 µM.
The same measure, in the same setting: the result for `C#CCn1cc(/C=N\N=C\C(C)=Cc2ccccc2)c2cc([N+](=O)[O-])ccc21` reads 27.2 µM.

Tested on in another data set: not listed separately
Nature of the data set: Selectivity index, ratio of IC50 for african green monkey Vero cells to IC50 for Leishmania major IR-173 (MHO-M/IR/-173) promastigote. In kind it is toxicity, cell-based. Particulars: read-out: Ratio IC50.
For the compound `C#CCn1cc(/C=N\N=C\c2ccco2)c2cc([N+](=O)[O-])ccc21`, the selectivity ratio stood at 20.

For another data set, the system named is Leishmania donovani. Nature of the data set: Antileishmanial activity against Leishmania donovani 9515 (MHOM/IN/95/9151) amastigote infected in THP-1 cells assessed as inhibition of parasite growth incubated for 72 hrs by resazurin dye based plate reader assay. In kind it is functional, organism-based. Particulars: THP-1, 72 h.
Consider `C#CCn1cc(/C=N\N=C\c2ccco2)c2cc([N+](=O)[O-])ccc21`, for which the concentration for half-maximal inhibition (IC50) amounted to 0.89 µM.
On to `C#CCn1cc(/C=N\N=C\C(C)=Cc2ccccc2)c2cc([N+](=O)[O-])ccc21`, for which the IC50 is above 10 µM.

Tested on in another data set: not listed separately
Nature of the data set: Selectivity index, ratio of IC50 for human THP-1 cells to IC50 for Leishmania donovani 9515 (MHOM/IN/95/9151) promastigote. In kind it is toxicity, cell-based. As to conditions: read-out: Ratio IC50.
Take `C#CCn1cc(/C=N\N=C\C(C)=Cc2ccccc2)c2cc([N+](=O)[O-])ccc21`: the selectivity ratio was determined as 13.

Tested on in a further data set: not listed separately
Kind of data set: Selectivity index, ratio of IC50 for african green monkey Vero cells to IC50 for Leishmania donovani 9515 (MHOM/IN/95/9151) promastigote. Format: toxicity, cell-based. As to conditions: read-out: Ratio IC50.
`C#CCn1cc(/C=N\N=C\C(C)=Cc2ccccc2)c2cc([N+](=O)[O-])ccc21`: the selectivity ratio came out at 1.

By IC50 is commonly meant the point on the concentration scale where inhibition reaches its midpoint. The CC50 is the concentration that lowers cell viability or growth by half.

Values taken from ChEMBL document CHEMBL6083269, “Design, synthesis, in vitro and in vivo trypanosomaticidal efficacy of novel 5-nitroindolylazines” (Eur J Med Chem, 2024).
